Experimental data published in US9200008B2 (ASKA PHARMACEUTICAL CO., LTD., priority 2010, dated 2015).

What follows are compounds tested on Human prostate cancer cell lines (PC-3 cells) (assay: Measurement of cell death-inducing activity (Test Example 1)). Conditions: PC-3, 48 h, 48 hours after addition, tested at 10, 1, 0.1, 0.025 and 0.00625 μmol/L, qualitative evaluation of 10 fields, read-out: Concentration showing the cell death-inducing activity (cell death-inducing rate not less than 40%).
Type: cell-based
Method in brief: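 Compound treatment lasted 48 h at 10 to 0.00625 μmol/L (five levels, DMSO as control) on PC-3 cells pre-cultured 48 h at 37 °C, 5% CO2 after seeding at 1×10^5 cells/well. A cell death-inducing rate of 40% or more counted as active.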

| Structure (SMILES) | minimal effective concentration |
| --- | --- |
| CCn1nc(-c2ccc(C)cc2C)cc1NC(=O)OCc1ccc2nn(C)cc2c1 [Example 9-296] | 1 µM |
| COc1cc(Cl)ccc1-c1cc(NC(=O)OCc2ccc3cnn(C)c3c2)n(C)n1 [Example 9-297] | 10 µM |
| CCn1ncc2ccc(COC(=O)Nc3cc(-c4ccc(Cl)cc4OC)nn3C)cc21 [Example 9-298] | 10 µM |
| COc1cc(Cl)ccc1-c1cc(NC(=O)OCc2ccc3cn(C)nc3c2)n(C)n1 [Example 9-300] | 0.00625 µM |
| CCn1cc2ccc(COC(=O)Nc3cc(-c4ccc(Cl)cc4OC)nn3C)cc2n1 [Example 9-301] | 0.025 µM |
| CCn1cc2ccc(COC(=O)Nc3cc(-c4ccc(Cl)cc4OC)nn3CC)cc2n1 [Example 9-302] | 0.1 µM |
| CCn1nc(-c2ccc(C)cc2C)cc1NC(=O)OCc1ccc2cn(C)nc2c1 [Example 9-303] | 1 µM |
| CCn1cc2ccc(COC(=O)Nc3cc(-c4ccc(C)cc4C)nn3C)cc2n1 [Example 9-304] | 1 µM |
| CCn1cc2ccc(COC(=O)Nc3cc(-c4ccc(C)cc4C)nn3CC)cc2n1 [Example 9-305] | 1 µM |
| Cn1nc(NC(=O)OCc2ccc3c(c2)ncn3C)cc1-c1ccccc1 [Example 9-306] | 10 µM |
| COc1cc(Cl)ccc1-c1cc(NC(=O)OCc2ccc3c(c2)ncn3C)nn1C [Example 9-309] | 10 µM |
| COc1cc(Cl)ccc1-c1nn(C)c(NC(=O)OCc2ccc3c(c2)ncn3C)c1C [Example 9-311] | 10 µM |
| CCn1cnc2cc(COC(=O)Nc3c(C)c(-c4ccc(Cl)cc4OC)nn3C)ccc21 [Example 9-313] | 10 µM |
| Cn1nc2c(c1NC(=O)OCc1ccc3c(c1)ncn3C)COc1ccccc1-2 [Example 9-320] | 10 µM |
| CCn1nc2c(c1NC(=O)OCc1ccc3c(c1)ncn3C)COc1ccccc1-2 [Example 9-321] | 10 µM |
| Cn1nc2c(c1NC(=O)OCc1ccc3c(cnn3C)c1)COc1ccccc1-2 [Example 9-324] | 10 µM |
| Cn1cnc2cc(COC(=O)Nc3nnc(-c4ccc(Cl)cc4Cl)s3)ccc21 [Example 9-335] | 10 µM |
| CCn1nc(-c2ccc(Cl)cc2Cl)cc1NC(=O)OC(C)c1ccc2c(c1)ncn2C (centres unmarked) [Example 9-337] | 10 µM |
| COc1cc(Cl)ccc1-c1cc(NC(=O)OC(C)c2ccc3c(c2)ncn3C)n(C)n1 (centres unmarked) [Example 9-338] | 10 µM |
| Cc1ccc(-c2cc(NC(=O)OC(C)c3ccc4c(c3)ncn4C)n(C)n2)c(C)c1 (centres unmarked) [Example 9-339] | 10 µM |
| COc1cc(Cl)ccc1-c1nc(C)c(NC(=O)OCc2ccc3c(c2)nc2n3CC(O)C2)s1 (centres unmarked) [Example 9-340] | 0.025 µM |
| COc1cc(C)ccc1-c1nc(C)c(NC(=O)OCc2ccc3c(c2)nc2n3CC(O)C2)s1 (centres unmarked) [Example 9-341] | 0.025 µM |
| COc1cc(C)ccc1-c1nc(C)c(NC(=O)OCc2ccc3c(c2)nc2n3CCC(O)C2)s1 (centres unmarked) [Example 9-342] | 1 µM |
| COc1cc(Cl)ccc1-c1nc(C)c(NC(=O)OCc2ccc3c(c2)nc2n3CCC(O)C2)s1 (centres unmarked) [Example 9-343] | 0.1 µM |

| Structure (SMILES) | minimal effective concentration |
| --- | --- |
| CCc1nc(-c2ccc(C)cc2OC)sc1NC(=O)OCc1ccc2c(c1)ncn2C [Example 9-344] | 0.00625 µM |
| CCc1nc(-c2ccc(Cl)cc2C)sc1NC(=O)OCc1ccc2c(c1)ncn2CC [Example 9-345] | 0.025 µM |
| CCc1nc(-c2ccc(F)cc2OC)sc1NC(=O)OCc1ccc2c(c1)ncn2CC [Example 9-346] | 0.025 µM |
| CCc1nc(-c2ccccc2OC)sc1NC(=O)OCc1ccc2c(c1)nc1n2CCC1 [Example 9-347] | 1 µM |
| CCc1nc(-c2ccc(F)cc2C)sc1NC(=O)OCc1ccc2c(c1)nc1n2CCC1 [Example 9-348] | 0.1 µM |
| CCc1nc(-c2ccc(Cl)cc2C)sc1NC(=O)OCc1ccc2c(c1)nc1n2CCC1 [Example 9-349] | 0.025 µM |
| CCc1nc(-c2ccc(C)cc2C)sc1NC(=O)OCc1ccc2c(c1)nc1n2CCC1 [Example 9-350] | 0.1 µM |
| CCc1nc(-c2ccccc2OC)sc1NC(=O)OCc1ccc2c(c1)nc1n2CCCC1 [Example 9-351] | 1 µM |
| CCc1nc(-c2ccc(F)cc2OC)sc1NC(=O)OCc1ccc2c(c1)nc1n2CCCC1 [Example 9-352] | 0.1 µM |
| CCc1nc(-c2ccc(C)cc2OC)sc1NC(=O)OCc1ccc2c(c1)nc1n2CCCC1 [Example 9-353] | 0.1 µM |
| CCc1nc(-c2ccc(C)cc2C)sc1NC(=O)OCc1ccc2c(c1)nc1n2CCCC1 [Example 9-354] | 1 µM |
| CCc1nc(-c2ccc(F)cc2C)sc1NC(=O)OCc1ccc2c(c1)nc1n2CCCC1 [Example 9-355] | 1 µM |
| CCc1nc(-c2ccc(Cl)cc2C)sc1NC(=O)OCc1ccc2c(c1)nc1n2CCCC1 [Example 9-356] | 0.1 µM |
| CCc1nc(-c2ccc(F)cc2OC)sc1NC(=O)OCc1ccc2c(c1)nc1n2CCOC1 [Example 9-357] | 0.025 µM |
| CCc1nc(-c2ccc(C)cc2OC)sc1NC(=O)OCc1ccc2c(c1)nc1n2CCOC1 [Example 9-358] | 0.025 µM |
| CCc1nc(-c2ccc(Cl)cc2C)sc1NC(=O)OCc1ccc2c(c1)ncn2C [Example 9-359] | 0.025 µM |
| CCc1nc(-c2ccc(F)cc2OC)sc1NC(=O)OCc1ccc2c(cnn2CC)c1 [Example 9-360] | 0.025 µM |
| CCc1nc(-c2ccc(F)cc2C)sc1NC(=O)OCc1ccc2c(cnn2CC)c1 [Example 9-361] | 0.1 µM |
| CCc1nc(-c2ccc(Cl)cc2C)sc1NC(=O)OCc1ccc2c(cnn2CC)c1 [Example 9-362] | 0.025 µM |
| CCc1nc(-c2ccc(F)cc2C)sc1NC(=O)OCc1ccc2nn(C)cc2c1 [Example 9-363] | 1 µM |
| CCc1nc(-c2ccc(Cl)cc2OC)sc1NC(=O)OCc1ccc2nn(C)cc2c1 [Example 9-364] | 0.025 µM |
| CCc1nc(-c2ccc(C)cc2OC)sc1NC(=O)OCc1ccc2nn(C)cc2c1 [Example 9-365] | 0.025 µM |
| CCc1nc(-c2ccc(C)cc2C)sc1NC(=O)OCc1ccc2nn(C)cc2c1 [Example 9-366] | 0.1 µM |
| CCc1nc(-c2ccccc2OC)sc1NC(=O)OCc1ccc2nn(CC)cc2c1 [Example 9-367] | 1 µM |

| Structure (SMILES) | minimal effective concentration |
| --- | --- |
| CCc1nc(-c2ccc(C)cc2OC)sc1NC(=O)OCc1ccc2nn(CC)cc2c1 [Example 9-368] | 0.1 µM |
| CCc1nc(-c2ccc(F)cc2C)sc1NC(=O)OCc1ccc2nn(CC)cc2c1 [Example 9-369] | 1 µM |
| CCc1nc(-c2ccc(Cl)cc2C)sc1NC(=O)OCc1ccc2nn(CC)cc2c1 [Example 9-370] | 0.1 µM |
| CCc1nc(-c2ccc(C)cc2C)sc1NC(=O)OCc1ccc2nn(CC)cc2c1 [Example 9-371] | 1 µM |
| CCc1nc(-c2ccc(C)cc2OC)sc1NC(=O)OCc1ccc2c(c1)nnn2C [Example 9-372] | 0.00625 µM |
| CCc1nc(-c2ccc(Cl)cc2OC)sc1NC(=O)OCc1ccc2c(c1)nc(C)n2C [Example 9-373] | 0.025 µM |
| CCc1nc(-c2ccc(C)cc2OC)sc1NC(=O)OCc1ccc2c(c1)nc(C)n2C [Example 9-374] | 0.1 µM |
| CCc1nc(-c2ccc(C)cc2C)sc1NC(=O)OCc1ccc2c(c1)nc(C)n2C [Example 9-375] | 0.1 µM |
| CCc1nc(-c2ccc(Cl)cc2C)sc1NC(=O)OCc1ccc2c(c1)nc(C)n2C [Example 9-376] | 0.1 µM |
| CCc1nc(-c2ccc(Cl)cc2C)sc1NC(=O)OCc1ccc2c(c1)nc1n2CCOC1 [Example 9-377] | 0.025 µM |
| COc1cc(Cl)ccc1-c1cc(NC(=O)OCc2ccc3c(c2)ncn3C)n(C)c1 [Example 10-2, [4-(4-Chloro-2-methoxyphenyl)-1-methyl-1H-pyrrol-2-yl]carbamic acid 1-methyl-1H-benzimidazol-5-ylmethyl ester] | 1 µM |
| Cc1ccccc1-c1nc(C)c(COC(=O)Nc2ccc3c(c2)ncn3C)s1 [Example 13-1, (1-Methyl-1H-benzimidazol-5-yl)carbamic acid 4-methyl-2-(2-methylphenyl)thiazol-5-ylmethyl ester] | 0.1 µM |
| Cc1cc(Cl)ccc1-c1nc(C)c(COC(=O)Nc2ccc3c(c2)nnn3C)s1 [Example 13-3] | 0.1 µM |
| COc1cc(Cl)ccc1-c1nc(C)c(COC(=O)Nc2ccc3c(c2)ncn3C)s1 [Example 13-5] | 0.1 µM |
| Cc1ccc(-c2nc(C)c(COC(=O)Nc3ccc4c(c3)ncn4C)s2)c(C)c1 [Example 13-8] | 0.025 µM |
| Cc1cc(F)ccc1-c1nc(C)c(COC(=O)Nc2ccc3c(c2)ncn3C)s1 [Example 13-9] | 0.025 µM |
| Cc1cc(Cl)ccc1-c1nc(C)c(COC(=O)Nc2ccc3c(c2)ncn3C)s1 [Example 13-10] | 0.00625 µM |
| Cc1nc(-c2ccc(F)cc2Cl)sc1COC(=O)Nc1ccc2c(c1)ncn2C [Example 13-11] | 0.025 µM |
| CCn1cnc2cc(NC(=O)OCc3sc(-c4ccccc4C)nc3C)ccc21 [Example 13-12] | 0.1 µM |
| CCn1cnc2cc(NC(=O)OCc3sc(-c4ccc(Cl)cc4OC)nc3C)ccc21 [Example 13-13] | 0.1 µM |
| CCn1cnc2cc(NC(=O)OCc3sc(-c4ccc(C)cc4C)nc3C)ccc21 [Example 13-15] | 0.025 µM |
| CCn1cnc2cc(NC(=O)OCc3sc(-c4ccc(F)cc4C)nc3C)ccc21 [Example 13-16] | 0.025 µM |
| CCn1cnc2cc(NC(=O)OCc3sc(-c4ccc(Cl)cc4C)nc3C)ccc21 [Example 13-17] | 0.025 µM |
